From ChEMBL document CHEMBL3045835, “Comparative study of conventional and microwave-assisted synthesis of some Schiff bases and their potential as antimicrobial agents” (2012)

Key:
Type in all cases: functional
Escherichia coli [1] = test: Antibacterial activity against Escherichia coli MTCC 1573 at 1500 ug/ml after 18 hr by cup-plate method; conditions: MTCC 1573, 18 h, read-out: DIZ
Bacillus subtilis [2] = test: Antibacterial activity against Bacillus subtilis MTCC 441 at 200 ug/ml after 18 hr by cup plate method; conditions: MTCC 441, 18 h, read-out: DIZ
Staphylococcus aureus [3] = test: Antibacterial activity against Staphylococcus aureus MTCC 1430 at 500 ug/ml after 18 hr by cup-plate method; conditions: MTCC 1430, 18 h, read-out: DIZ
Aspergillus niger [4] = test: Antifungal activity against Aspergillus niger MTCC 2546 after 24 hr by broth dilution method; conditions: MTCC 2546, 24 h
Penicillium chrysogenum [5] = test: Antifungal activity against Penicillium chrysogenum MTCC 161 after 24 hr by broth dilution method; conditions: MTCC 161, 24 h
Staphylococcus aureus [6] = test: Antibacterial activity against Staphylococcus aureus MTCC 1430 at 100 ug/ml after 18 hr by cup-plate method; conditions: MTCC 1430, 18 h, read-out: DIZ
Pseudomonas fluorescens [7] = test: Antibacterial activity against Pseudomonas fluorescens MTCC 2421 at 200 ug/ml after 18 hr by cup-plate method; conditions: MTCC 2421, 18 h, read-out: DIZ
Micrococcus luteus [8] = test: Antibacterial activity against Micrococcus luteus MTCC 1538 at 500 ug/ml after 18 hr by cup-plate method; conditions: MTCC 1538, 18 h, read-out: DIZ
Micrococcus luteus [9] = test: Antibacterial activity against Micrococcus luteus MTCC 1538 at 200 ug/ml after 18 hr by cup-plate method; conditions: MTCC 1538, 18 h, read-out: DIZ
Pseudomonas aeruginosa [10] = test: Antibacterial activity against Pseudomonas aeruginosa MTCC 424 at 1500 ug/ml after 18 hr by cup-plate method; conditions: MTCC 424, 18 h, read-out: DIZ
Escherichia coli [11] = test: Antibacterial activity against Escherichia coli MTCC 1573 at 500 ug/ml after 18 hr by cup-plate method; conditions: MTCC 1573, 18 h, read-out: DIZ
Escherichia coli [12] = test: Antibacterial activity against Escherichia coli MTCC 1573 at 100 ug/ml after 18 hr by cup-plate method; conditions: MTCC 1573, 18 h, read-out: DIZ
Penicillium chrysogenum [13] = test: Antifungal activity against Penicillium chrysogenum MTCC 161 at 500 ug/ml after 18 hr by cup-plate method; conditions: MTCC 161, 18 h, read-out: DIZ
Bacillus pumilus [14] = test: Antibacterial activity against Bacillus pumilus MTCC 1456 at 100 ug/ml after 18 hr by cup-plate method; conditions: MTCC 1456, 18 h, read-out: DIZ
Aspergillus niger [15] = test: Antifungal activity against Aspergillus niger MTCC 2546 at 200 ug/ml after 18 hr by cup-plate method; conditions: MTCC 2546, 18 h, read-out: DIZ
Pseudomonas fluorescens [16] = test: Antibacterial activity against Pseudomonas fluorescens MTCC 2421 at 1500 ug/ml after 18 hr by cup-plate method; conditions: MTCC 2421, 18 h, read-out: DIZ
Pseudomonas aeruginosa [17] = test: Antibacterial activity against Pseudomonas aeruginosa MTCC 424 at 500 ug/ml after 18 hr by cup-plate method; conditions: MTCC 424, 18 h, read-out: DIZ
Escherichia coli [18] = test: Antibacterial activity against Escherichia coli MTCC 1573 after 24 hr by broth dilution method; conditions: MTCC 1573, 24 h
Bacillus subtilis [19] = test: Antibacterial activity against Bacillus subtilis MTCC 441 after 24 hr by broth dilution method; conditions: MTCC 441, 24 h
Staphylococcus aureus [20] = test: Antibacterial activity against Staphylococcus aureus MTCC 1430 at 1000 ug/ml after 18 hr by cup-plate method; conditions: MTCC 1430, 18 h, read-out: DIZ
Pseudomonas aeruginosa [21] = test: Antibacterial activity against Pseudomonas aeruginosa MTCC 424 at 200 ug/ml after 18 hr by cup-plate method; conditions: MTCC 424, 18 h, read-out: DIZ
Penicillium chrysogenum [22] = test: Antifungal activity against Penicillium chrysogenum MTCC 161 at 1500 ug/ml after 18 hr by cup-plate method; conditions: MTCC 161, 18 h, read-out: DIZ
Bacillus subtilis [23] = test: Antibacterial activity against Bacillus subtilis MTCC 441 at 1000 ug/ml after 18 hr by cup plate method; conditions: MTCC 441, 18 h, read-out: DIZ
Bacillus subtilis [24] = test: Antibacterial activity against Bacillus subtilis MTCC 441 at 100 ug/ml after 18 hr by cup plate method; conditions: MTCC 441, 18 h, read-out: DIZ
Pseudomonas fluorescens [25] = test: Antibacterial activity against Pseudomonas fluorescens MTCC 2421 at 500 ug/ml after 18 hr by cup-plate method; conditions: MTCC 2421, 18 h, read-out: DIZ
Bacillus pumilus [26] = test: Antibacterial activity against Bacillus pumilus MTCC 1456 at 1500 ug/ml after 18 hr by cup-plate method; conditions: MTCC 1456, 18 h, read-out: DIZ
Aspergillus niger [27] = test: Antifungal activity against Aspergillus niger MTCC 2546 at 500 ug/ml after 18 hr by cup-plate method; conditions: MTCC 2546, 18 h, read-out: DIZ
Aspergillus niger [28] = test: Antifungal activity against Aspergillus niger MTCC 2546 at 100 ug/ml after 18 hr by cup-plate method; conditions: MTCC 2546, 18 h, read-out: DIZ
Pseudomonas fluorescens [29] = test: Antibacterial activity against Pseudomonas fluorescens MTCC 2421 after 24 hr by broth dilution method; conditions: MTCC 2421, 24 h
Micrococcus luteus [30] = test: Antibacterial activity against Micrococcus luteus MTCC 1538 at 1500 ug/ml after 18 hr by cup-plate method; conditions: MTCC 1538, 18 h, read-out: DIZ
Pseudomonas fluorescens [31] = test: Antibacterial activity against Pseudomonas fluorescens MTCC 2421 at 1000 ug/ml after 18 hr by cup-plate method; conditions: MTCC 2421, 18 h, read-out: DIZ
Bacillus subtilis [32] = test: Antibacterial activity against Bacillus subtilis MTCC 441 at 500 ug/ml after 18 hr by cup plate method; conditions: MTCC 441, 18 h, read-out: DIZ
Escherichia coli [33] = test: Antibacterial activity against Escherichia coli MTCC 1573 at 1000 ug/ml after 18 hr by cup-plate method; conditions: MTCC 1573, 18 h, read-out: DIZ
Pseudomonas aeruginosa [34] = test: Antibacterial activity against Pseudomonas aeruginosa MTCC 424 at 1000 ug/ml after 18 hr by cup-plate method; conditions: MTCC 424, 18 h, read-out: DIZ
Micrococcus luteus [35] = test: Antibacterial activity against Micrococcus luteus MTCC 1538 after 24 hr by broth dilution method; conditions: MTCC 1538, 24 h
Bacillus pumilus [36] = test: Antibacterial activity against Bacillus pumilus MTCC 1456 at 1000 ug/ml after 18 hr by cup-plate method; conditions: MTCC 1456, 18 h, read-out: DIZ
Bacillus subtilis [37] = test: Antibacterial activity against Bacillus subtilis MTCC 441 at 1500 ug/ml after 18 hr by cup plate method; conditions: MTCC 441, 18 h, read-out: DIZ
Micrococcus luteus [38] = test: Antibacterial activity against Micrococcus luteus MTCC 1538 at 100 ug/ml after 18 hr by cup-plate method; conditions: MTCC 1538, 18 h, read-out: DIZ
Aspergillus niger [39] = test: Antifungal activity against Aspergillus niger MTCC 2546 at 1500 ug/ml after 18 hr by cup-plate method; conditions: MTCC 2546, 18 h, read-out: DIZ
Staphylococcus aureus [40] = test: Antibacterial activity against Staphylococcus aureus MTCC 1430 after 24 hr by broth dilution method; conditions: MTCC 1430, 24 h
Pseudomonas aeruginosa [41] = test: Antibacterial activity against Pseudomonas aeruginosa MTCC 424 after 24 hr by broth dilution method; conditions: MTCC 424, 24 h
Staphylococcus aureus [42] = test: Antibacterial activity against Staphylococcus aureus MTCC 1430 at 200 ug/ml after 18 hr by cup-plate method; conditions: MTCC 1430, 18 h, read-out: DIZ
Pseudomonas fluorescens [43] = test: Antibacterial activity against Pseudomonas fluorescens MTCC 2421 at 100 ug/ml after 18 hr by cup-plate method; conditions: MTCC 2421, 18 h, read-out: DIZ
Pseudomonas aeruginosa [44] = test: Antibacterial activity against Pseudomonas aeruginosa MTCC 424 at 100 ug/ml after 18 hr by cup-plate method; conditions: MTCC 424, 18 h, read-out: DIZ
Staphylococcus aureus [45] = test: Antibacterial activity against Staphylococcus aureus MTCC 1430 at 1500 ug/ml after 18 hr by cup-plate method; conditions: MTCC 1430, 18 h, read-out: DIZ
Penicillium chrysogenum [46] = test: Antifungal activity against Penicillium chrysogenum MTCC 161 at 100 ug/ml after 18 hr by cup-plate method; conditions: MTCC 161, 18 h, read-out: DIZ
Penicillium chrysogenum [47] = test: Antifungal activity against Penicillium chrysogenum MTCC 161 at 1000 ug/ml after 18 hr by cup-plate method; conditions: MTCC 161, 18 h, read-out: DIZ
Micrococcus luteus [48] = test: Antibacterial activity against Micrococcus luteus MTCC 1538 at 1000 ug/ml after 18 hr by cup-plate method; conditions: MTCC 1538, 18 h, read-out: DIZ
Penicillium chrysogenum [49] = test: Antifungal activity against Penicillium chrysogenum MTCC 161 at 200 ug/ml after 18 hr by cup-plate method; conditions: MTCC 161, 18 h, read-out: DIZ
Aspergillus niger [50] = test: Antifungal activity against Aspergillus niger MTCC 2546 at 1000 ug/ml after 18 hr by cup-plate method; conditions: MTCC 2546, 18 h, read-out: DIZ
Escherichia coli [51] = test: Antibacterial activity against Escherichia coli MTCC 1573 at 200 ug/ml after 18 hr by cup-plate method; conditions: MTCC 1573, 18 h, read-out: DIZ
Bacillus pumilus [52] = test: Antibacterial activity against Bacillus pumilus MTCC 1456 at 500 ug/ml after 18 hr by cup-plate method; conditions: MTCC 1456, 18 h, read-out: DIZ
Bacillus pumilus [53] = test: Antibacterial activity against Bacillus pumilus MTCC 1456 after 24 hr by broth dilution method; conditions: MTCC 1456, 24 h
Bacillus pumilus [54] = test: Antibacterial activity against Bacillus pumilus MTCC 1456 at 200 ug/ml after 18 hr by cup-plate method; conditions: MTCC 1456, 18 h, read-out: DIZ

Cc1cc(/N=C/c2cccc3ccccc23)no1
19 mm: zone of inhibition at 1500 µg/mL (Pseudomonas fluorescens [16]) | zone of inhibition at 1000 µg/mL (Bacillus subtilis [23]) | zone of inhibition at 500 µg/mL (Aspergillus niger [27]) | zone of inhibition at 1000 µg/mL (Penicillium chrysogenum [47])
300 µg/mL: MIC (Aspergillus niger [4]) | MIC (Escherichia coli [18]) | MIC (Bacillus subtilis [19]) | MIC (Pseudomonas fluorescens [29]) | MIC (Pseudomonas aeruginosa [41]) | MIC (Bacillus pumilus [53])
20 mm: zone of inhibition at 500 µg/mL (Micrococcus luteus [8]) | zone of inhibition at 1500 µg/mL (Pseudomonas aeruginosa [10]) | zone of inhibition at 1500 µg/mL (Penicillium chrysogenum [22]) | zone of inhibition at 1500 µg/mL (Bacillus subtilis [37]) | zone of inhibition at 1500 µg/mL (Staphylococcus aureus [45]) | zone of inhibition at 1000 µg/mL (Aspergillus niger [50])
200 µg/mL: MIC (Penicillium chrysogenum [5]) | MIC (Micrococcus luteus [35])
21 mm: zone of inhibition at 1500 µg/mL (Aspergillus niger [39])
16 mm: zone of inhibition at 200 µg/mL (Bacillus subtilis [2]) | zone of inhibition at 1000 µg/mL (Staphylococcus aureus [20]) | zone of inhibition at 200 µg/mL (Pseudomonas aeruginosa [21]) | zone of inhibition at 100 µg/mL (Micrococcus luteus [38]) | zone of inhibition at 200 µg/mL (Penicillium chrysogenum [49]) | zone of inhibition at 500 µg/mL (Bacillus pumilus [52])
400 µg/mL: MIC (Staphylococcus aureus [40])
14 mm: zone of inhibition at 500 µg/mL (Escherichia coli [11]) | zone of inhibition at 200 µg/mL (Staphylococcus aureus [42]) | zone of inhibition at 100 µg/mL (Pseudomonas aeruginosa [44])
22 mm: zone of inhibition at 1000 µg/mL (Micrococcus luteus [48])
17 mm: zone of inhibition at 1500 µg/mL (Escherichia coli [1]) | zone of inhibition at 500 µg/mL (Pseudomonas aeruginosa [17]) | zone of inhibition at 500 µg/mL (Bacillus subtilis [32]) | zone of inhibition at 1000 µg/mL (Bacillus pumilus [36])
15 mm: zone of inhibition at 500 µg/mL (Staphylococcus aureus [3]) | zone of inhibition at 500 µg/mL (Pseudomonas fluorescens [25]) | zone of inhibition at 1000 µg/mL (Escherichia coli [33]) | zone of inhibition at 100 µg/mL (Penicillium chrysogenum [46]) | zone of inhibition at 200 µg/mL (Bacillus pumilus [54])
18 mm: zone of inhibition at 200 µg/mL (Micrococcus luteus [9]) | zone of inhibition at 500 µg/mL (Penicillium chrysogenum [13]) | zone of inhibition at 200 µg/mL (Aspergillus niger [15]) | zone of inhibition at 1500 µg/mL (Bacillus pumilus [26]) | zone of inhibition at 1000 µg/mL (Pseudomonas fluorescens [31]) | zone of inhibition at 1000 µg/mL (Pseudomonas aeruginosa [34])
11 mm: zone of inhibition at 100 µg/mL (Pseudomonas fluorescens [43])
24 mm: zone of inhibition at 1500 µg/mL (Micrococcus luteus [30])
12 mm: zone of inhibition at 100 µg/mL (Escherichia coli [12])
13 mm: zone of inhibition at 100 µg/mL (Staphylococcus aureus [6]) | zone of inhibition at 200 µg/mL (Pseudomonas fluorescens [7]) | zone of inhibition at 100 µg/mL (Bacillus pumilus [14]) | zone of inhibition at 100 µg/mL (Bacillus subtilis [24]) | zone of inhibition at 100 µg/mL (Aspergillus niger [28]) | zone of inhibition at 200 µg/mL (Escherichia coli [51])
